Test results: patent publication EP4119128A1, “PHARMACEUTICAL COMPOSITION FOR THE ORAL ADMINISTRATION OF POORLY SOLUBLE DRUGS COMPRISING AN AMORPHOUS SOLID DISPERSION” (Dr. Falk Pharma GmbH, priority 2021, dated 2023)
Counter-ions that a name gives are not always drawn. Like-named read-outs stand apart in the source and are kept apart here.

Key:
[1] = Two-stage biorelevant in vitro dissolution test (acid stage pH 2.0, buffer stage pH 7.0, non-sink conditions); format: physicochemical
Text: To characterize the in vitro performance of the gastro-resistant granules that contain the RhuDex® choline salt as an amorphous solid dispersion a predictive biorelevant dissolution method has been developed. The design of the method comprises a two-stage in vitro dissolution test that simulates the conditions of the gastrointestinal passage. In a first step the formulation is exposed to simulated gastric fluid where the enteric protection provided by the outer hypromellose succinate acetate layer should ensure that there is no premature drug substance release from the granules. The subsequent step simulates the condition of the upper intestine where the enteric polymer should immediately dissolve and where the drug substance release should start. The gastro-resistance and the release profile are measured by the amount of RhuDex® choline salt dissolved in the acid and buffer medium. The established test system relies on the use of standard media and buffer systems without the addition of any surfactants or bile acids. […] The extent of the spring and parachute effect should be measurable in the simulated intestinal fluid. The parameters of the biorelevant dissolution method are presented below. Summarizing the established conditions for testing the biorelevant dissolution of RhuDex® choline salt gastro-resistant granules, the studies are conducted under non-sink conditions as follows: […]

[2] = Saturation solubility, shake-flask method, quantification by HPLC/UV; format: physicochemical; conditions: 0.01 N HCl, 37 °C, pH 2, simulated gastric fluid, thermodynamic from solid, 0.01 N HCl pH 2; 24 h at 37°C
[3] = as above; format: physicochemical; conditions: for solubility at 24 h: 37 °C, thermodynamic from solid
Experimental: The saturation solubility of RhuDex® choline salt determined at 37°C after 24 hours by HPLC/UV using the shake-flask method is at around or below 0.001 mg/mL when using standard media or buffers such as 0.1 N hydrochloric acid pH 1.2 and 50 mM phosphate buffer pH 7.0 or biorelevant media such as Fasted-State Simulated Intestinal Fluid (i.e. FaSSIF) pH 6.5 and Fed-State Simulated Intestinal Fluid (FeSSIF) pH 5.0.
When increasing the pH value above the pKa and beyond the physiological conditions (i.e. pH > 8), the opposite effect occurs as the molecule is transferred into its negatively charged and soluble ion. […] However, these enabling technologies are neither standard nor easily applicable as they directly affect the physical properties of the drug substance and thereby its thermodynamic stability. Therefore, there is an extremely high risk of failure associated with these technologies concluding that the drug substance cannot be further developed into a suitable, stable, bioavailable and commercially viable formulation. Table 2: Saturation solubility of RhuDex® choline salt in biorelevant media (shake-flask method, 24 h at 37°C, quantification by HPLC/UV)

[4] = Hygroscopicity of the drug substance; format: physicochemical
[5] = system: monolayers formed by human colon carcinoma cell line Caco-2; test: Apparent permeation across Caco-2 cell monolayers; format: in vitro ADME; conditions: Caco-2 cell monolayers; 127 µg/ml
Experimental: (§1) The biorelevant dissolution profile of the embodiment positively affects the second relevant parameter predicting the compound's oral bioavailability, i.e. its permeability. As shown in apparent permeation studies across monolayers formed by human colon carcinoma cell line Caco-2 the spring and parachute effect observed for formulated RhuDex® choline salt also leads to a higher permeation rate when compared with its crystalline and unformulated counterpart. The permeation assays were performed using an apical buffer at a pH value of 7.0 and a basolateral buffer at a pH value of 7.4. The test concentration was set to 127 µg/ml and should represent a potential clinical dose of 31.75 mg RhuDex® choline salt administrered in a volume of 250 ml (i.e. 31.75 mg/250 ml = 0.127 mg/ml). With an apparent permeation value (Papp) of less than 1 (i.e. 0.12 x 10^-6 cm/s) the permeability of crystalline RhuDex® choline salt across Caco-2 cell monolayers must be classified as poor and a low bioavailability of unformulated drug substance can be estimated. However, the Papp value increased to 2.7 x 10^-6 cm/s when using an amorphous solid dispersion of RhuDex® choline salt in the same experiment indicating a remarkable shift from low to moderate permeability. This effect can be cleary attributed to the embodiment.

[6] = Apparent permeation across Caco-2 cell monolayers; format: in vitro ADME, human; conditions: human, Caco-2; apical buffer pH 7.0, basolateral buffer pH 7.4; test concentration 127 µg/ml
Experimental: as §1

[7] = pKa value of the drug substance; format: physicochemical; conditions: free acid

SMILES: O=C(NCC(F)F)c1ccc(-n2[nH]c3c(nnc4c(F)cccc43)c2=O)cc1 [RhuDex® choline salt, N-(2,2-difluoroethyl)-4-(6-fluoro-3-oxo-1,3-dihydropyrazolo[4,3-c]cinnolin-2-yl)-benzamide]
- amount in solution when presented in crystalline form ([1]; 0.001 mg/ml x 460 ml, buffer pH 7.0): 0.46 mg
- dose in solution when presented in crystalline form ([1]; calculated from solubility 0.001 mg/ml in 460 ml buffer pH 7.0, dose 31.75 mg): 1.4%
- solubility at 24 h [2]: 0.1 µg/mL
- biopharmaceutics classification system (BCS) class [3]: either Class II (low solubility/high permeability) or Class IV (low solubility/low permeability)
- solubility at 24 h ([3]; 50 mM borate buffer, pH 9.5, aqueous buffer, 50 mM borate buffer, pH 9.5, read-out: solubility): 1300 µg/mL
- solubility at 24 h ([3]; 50 mM phosphate buffer, pH 7, aqueous buffer, Phosphate buffer 50 mM, pH 7.0, 24 h at 37°C, read-out: Saturation solubility): 0.7 µg/mL
- solubility at 24 h ([3]; 50 mM phosphate buffer, pH 7, aqueous buffer, pH 7.0, read-out: solubility of the drug substance): ~1 µg/mL
- solubility at 24 h ([3]; aqueous buffer, 37°C, 24 hours, shake-flask, 0.1 N hydrochloric acid pH 1.2, 50 mM phosphate buffer pH 7.0, FaSSIF pH 6.5, FeSSIF pH 5.0, read-out: saturation solubility): ≤ 1 µg/mL
- solubility at 24 h ([3]; FaSSIF, pH 6.5, fassif, FaSSIF, pH 6.5, 24 h at 37°C, read-out: Saturation solubility): 1.1 µg/mL
- solubility at 24 h ([3]; FeSSIF, pH 5, fessif, FeSSIF, pH 5.0, 24 h at 37°C, read-out: Saturation solubility): 0.1 µg/mL
- volume required to completely dissolve one dose ([3]; dose 31.75 mg, minimum solubility 0.001 mg/mL, physiologically relevant conditions): more than 30 L
- solubility at 24 h ([3]; water, pH 9.9, water, in water, final pH value of the solution 9.9, read-out: solubility): ~10000 µg/mL
- hygroscopicity [4]: only slightly hygroscopic
- permeability classification [5]: poor
- Papp at 127 µg/ml [6]: 0.12 ×10⁻⁶ cm/s

SMILES: O=C(NCC(F)F)c1ccc(-n2[nH]c3c(nnc4c(F)cccc43)c2=O)cc1 [RhuDex® free acid, 4-(6-fluoro-3-oxo-1,3-dihydro-pyrazolo[4,3-c]cinnolin-2-yl)-N-(2,2-difluoro-ethyl)-benzamide]
- pKa [7]: 5.8
